Results published in patent US20260256790A1, “DEBIO-0123 IN COMBINATION WITH TEMOZOLOMIDE AND RADIOTHERAPY FOR USE IN TREATING GLIOMA” (Debiopharm International S.A., priority 2023, published 2026).
Read-outs that look alike come from different tables or passages of the source.

How the values were obtained:
[1] = system: SF188 cells; assay: ATP-based cell viability assay (CellTiter-Glo 2.0) in control and ATRX-deficient SF188 cells
Experimental: SF188 cells were transfected with ATRX siRNA (siATRX_1 or siATRX_2) either individually (A) or as a pool (B and C) or control siRNA (siCon) and ATRX deficiency assessed by determining relative ATRX protein levels by western blotting. Control and ATRX-deficient SF188 cells were then treated with compound of formula (I) at a range of concentrations between 0 and 1.5 uM (FIG. 7A) and at 400 nM (FIG. 7B) and drug sensitivities were assessed via an ATP-based cell viability assay or in colony formation assay.
For cell viability assessment, SF188 cells were seeded in 96-well culture plates at 100-500 cells in 100 μl of culture media per well. After overnight incubation, 100 μl of culture media containing compound of formula (I) was added to each well at the desired final concentration. After 72 h, cell viability was assessed by CellTiter-Glo 2.0 according to the manufacturer's instructions. Each condition was tested in triplicate or quadruplicate, and the average viability is presented as a percentage of vehicle-treated cells. For colony formation assessment (FIG. 7C), SF188 cells were seeded on a 6-well plate at 100 cells per well in 1 ml of culture media. After overnight incubation, 1 ml of culture media containing compound of formula (I) was added to each well at the desired final concentrations up to 400 nM. At 10 days post-treatment, cell colonies were fixed with 70% ethanol for 30 min, washed with distilled water, and stained with Coomassie Blue. The number of colonies in each well was counted manually. Each colony consisted of >50 cells (corresponds to six doublings from a single cell). Colony-forming efficiency was determined by normalizing the colony numbers to the vehicle-treated cells.

[2] = Plasma, brain and CSF concentrations (PK) in healthy rats after single oral dose; format: in vivo, Wistar Han rats; conditions: 15 mg/kg p.o. single dose; for Kp: 15 mg/kg
Experimental: Healthy male Wistar Han rats were treated orally with a single dose of 15 mg/kg Compound of formula (I) (24 rats in total, 3 rats per time-point). Compound of formula (I) was formulated as a suspension in 0.5% methylcellulose with 1% Tween 80 and administered at a concentration of 1.5 mg/mL with a dosing volume of 10 mL/kg.
At designated time-points (0.5; 1; 2; 4; 8; 24; 32; 48 hrs post-dose), the rats were euthanized by carbon dioxide inhalation. Thereafter, blood, CSF, and brain samples were collected as follows. Blood samples were collected by cardiac puncture into K2EDTA containing tubes. The tubes were inverted several times, placed on ice and centrifuged within 30 min of collection (4° C. for 5 min at 6000 rpm) to obtain plasma. The plasma samples were snap frozen in dry ice and stored at −80° C. until analysis. The CSF samples were collected by using a scalp-needle to puncture the foramen magnum. The CSF samples were acidified with 10% formic acid (final sample concentration of 0.5% formic acid) and stored in −80° C. until further analysis. The brain was collected, weighed and snap frozen in dry ice until further analysis. To obtain brain homogenates, firstly water was added to each brain (brain weight:water volume=1:4) then the brain was homogenized with a H-speed dispersator (time procedure: homogenizing for 10 s and interval of 10 s per time, total 3-5 times; cleaning procedure for dispersator: Water-Methanol-Ethanol-Water, 10 s each). The brain homogenate samples were transferred to individual tubes and stored at −80° C. prior to analysis.
The samples were analyzed as follows. For each analytical batch of plasma and brain samples, the standard and quality control (QC) samples were freshly prepared in blank male Wistar Han plasma (with K2EDTA anticoagulant) and brain homogenate. Acidified (containing 0.5% formic acid) artificial CSF was used as standard and quality control for the CSF samples. Additionally, one set of blank male Wistar Han CSF was included as QC sample.
To an aliquot of each standard, QC, control blank and study samples, internal standard (^13CD6-Compound of formula (I)) in methanol/acetonitrile (1:1, v/v) was added. The samples were mixed for 1 minute and centrifuged at 4000 rpm at 4° C. for 15 minutes. Supernatants were transferred and diluted in MeOH/water (1:1, v/v, with 0.1% FA) prior to LC-MS/MS injection.
Chromatographic separation was achieved on a Shimadzu LC-20AD (for plasma and brain samples) or Shimadzu LC-30AD (for CSF samples) using a Kinetex 2.6μ C18 100A column (50 mm*3.00 mm; for plasma and brain samples) or an ACE 5 C4 column (50 mm*2.1 mm; for CSF samples). The following conditions were applied: flow rate: 0.7 mL/min; run time: 3.0 min; mobile phase: A: 5 mM NH4OAc (0.1% FA), B: Acetonitrile (0.1% FA).
Detection was accomplished with an AB Sciex 5500 utilizing electrospray MS/MS in positive ion multiple reaction monitoring mode (MRM). The MRM channels were 511.29/98 for Compound of formula (I) and 518.17/102.10 for the internal standard ^13CD6-Compound of formula (I).
The measured plasma, CSF and brain concentrations at each time-point, the nominal sample collection time, and intended dosages were used for pharmacokinetic analysis. The PK parameters of all study compounds were determined by non-compartmental analysis using WinNonlin Version 8.0 (Pharsight).

[3] = Binding to plasma proteins; format: in vitro ADME; conditions: human
Experimental: Thus, the unbound (or free fraction) of the Study Drug and the N^32-desmethyl-Study drug are calculated.

With `Cc1cc(Nc2ncc3c(n2)N(C)CN(c2c(Cl)cccc2Cl)C3=O)ccc1C1CCN(C)CC1` [Compound of formula (I)] the “Viability of SF188 cells” value ([1]; 0 to 1.5 uM, 72 h, CellTiter-Glo 2.0) was “significantly reduced the viability of SF188 cells”, the “Cell viability of ATRX-deficient SF188 cells” value ([1]; 400 nM, p<0.01) was “significantly reduced” and the “IC50 in SF188 cells with ATRX siRNA relative to control siRNA” value ([1]; cell viability, 72 h) was “less than half of control siRNA”. The “AUCInf, brain” value [2] was 8415 ng·h/g, the “AUCLast, brain” value [2] was 8383 ng·h/g and the “Cmax, CSF” value [2] was 15.6 ng/mL. The “Cmax, brain” value [2] was 588 ng/g, the AUC(0-inf) ([2]; male, Wistar Han, rat, CSF, po, read-out: AUCInf, CSF) was 221 ng·h/mL and the AUC(0-t) ([2]; male, Wistar Han, rat, CSF, po, read-out: AUCLast, CSF) was 219 ng·h/mL. The Kp ([2]; male, Wistar Han, rat, CSF/unbound plasma, oral, unbound plasma from free fraction 7.8%, read-out: CSF to unbound plasma ratio based on AUCInf) was 0.2, the Kp ([2]; male, Wistar Han, rat, CSF/unbound plasma, oral, unbound plasma from free fraction 7.8%, read-out: CSF to unbound plasma ratio based on AUCLast) was 0.2 and the Kp ([2]; male, Wistar Han, rat, CSF/unbound plasma, oral, unbound plasma from free fraction 7.8%, read-out: CSF to unbound plasma ratio based on Cmax) was 0.18. The Kp ([2]; male, Wistar Han, rat, brain/plasma, po, read-out: Brain to plasma ratio based on AUCInf) was 0.6, the Kp ([2]; male, Wistar Han, rat, brain/plasma, po, read-out: Brain to plasma ratio based on AUCLast) was 0.6 and the Kp ([2]; male, Wistar Han, rat, brain/plasma, po, read-out: Brain to plasma ratio based on Cmax) was 0.52. The Cmax ([2]; male, Wistar Han, rat, plasma, po) was 1140 ng/mL, the AUC(0-inf) ([2]; male, Wistar Han, rat, plasma, po, read-out: AUCInf, plasma) was 14100 ng·h/mL and the AUC(0-t) ([2]; male, Wistar Han, rat, plasma, po, read-out: AUCLast, plasma) was 14100 ng·h/mL. The fraction unbound [3] was 0.083.
